ChEMBL document CHEMBL6109155, “Discovery of Phenylacylpiperidine as Novel sEH Inhibitors through Scaffold Hopping of Natural Stilbene” (J Med Chem, 2025)
Active and inactive are the calls of the source. No cut-off for these calls is given here.

Experiments:
[1] = system: RAW264.7; assay: Anti-inflammatory activity in LPS-indeced mouse RAW264.7 cells assessed as reduction in IL-6 level at 10 uM preincubated for 1 hr followed by LPS addition measured after 24 hrs by ELISA; type: functional, cell-based
[2] = system: RAW264.7; assay: Effect on IL-6 level in LPS-indeced mouse RAW264.7 cells at 10 uM preincubated for 1 hr followed by LPS addition measured after 24 hrs by ELISA; type: functional, cell-based
[3] = system: Mus musculus; assay: Anti-inflammatory activity in BALB/c mouse model of carrageenan-induced paw edema assessed as increase in ratio of 14,15-EET to DHET plasma levels at 10 mg/kg, po measured after 6 hrs; type: functional, organism-based
[4] = system: Mus musculus; assay: Anti-inflammatory activity in BALB/c mouse model of carrageenan-induced paw edema assessed as increase in ratio of 11,12-EET to DHET plasma levels at 10 mg/kg, po measured after 6 hrs; type: functional, organism-based
[5] = system: RAW264.7; assay: Anti-inflammatory activity in LPS-indeced mouse RAW264.7 cells assessed as reduction in IL-1beta level at 10 uM preincubated for 1 hr followed by LPS addition measured after 24 hrs by ELISA; type: functional, cell-based
[6] = system: Mus musculus; assay: Anti-inflammatory activity in BALB/c mouse model of carrageenan-induced paw edema assessed as decrease in plasma 14,15-DHET levels at 10 mg/kg, po measured after 6 hrs; type: functional, organism-based
[7] = system: RAW264.7; assay: Anti-inflammatory activity in LPS-indeced mouse RAW264.7 cells assessed as reduction in TNF-alpha level at 10 uM preincubated for 1 hr followed by LPS addition measured after 24 hrs by ELISA; type: functional, cell-based; details: time 25.0 hrs
[8] = system: Mus musculus; assay: Anti-inflammatory activity in BALB/c mouse model of carrageenan-induced paw edema assessed as decrease in plasma 8,9-DHET levels at 10 mg/kg, po measured after 6 hrs; type: functional, organism-based
[9] = system: Mus musculus; assay: Effect on liver sEH enzyme activity in BALB/c mouse model of carrageenan-induced paw edema at 1 to 10 mg/kg, po measured after 6 hrs; type: functional, organism-based; details: dose 1-10 mg/kg
[10] = system: Mus musculus; assay: Effect on liver sEH protein content in BALB/c mouse model of carrageenan-induced paw edema at 1 to 10 mg/kg, po measured after 6 hrs; type: functional, organism-based; details: dose 1-10 mg/kg
[11] = system: Mus musculus; assay: Anti-inflammatory activity in BALB/c mouse model of carrageenan-induced paw edema assessed as increase in ratio of 8,9-EET to DHET plasma levels at 10 mg/kg, po measured after 6 hrs; type: functional, organism-based
[12] = system: Mus musculus; assay: Anti-inflammatory activity in BALB/c mouse model of carrageenan-induced paw edema assessed as decrease in plasma 11,12-DHET levels at 10 mg/kg, po measured after 6 hrs; type: functional, organism-based
[13] = system: RAW264.7; assay: Effect on IL-10 level in LPS-indeced mouse RAW264.7 cells at 10 uM preincubated for 1 hr followed by LPS addition measured after 24 hrs by ELISA; type: functional, cell-based
[14] = system: RAW264.7; assay: Upregulation of IL-10 level in LPS-indeced mouse RAW264.7 cells at 10 uM preincubated for 1 hr followed by LPS addition measured after 24 hrs by ELISA; type: functional, cell-based
[15] = system: Mus musculus; assay: Anti-inflammatory activity in BALB/c mouse model of carrageenan-induced paw edema assessed as inhibition of paw swelling at 10 mg/kg, po measured up to 6 hrs relative to control; type: functional
[16] = biological target: T1, Bifunctional epoxide hydrolase 2 (Mus musculus, UniProt P34914); assay: biochemical
T1 sequence (P34914 whole entry): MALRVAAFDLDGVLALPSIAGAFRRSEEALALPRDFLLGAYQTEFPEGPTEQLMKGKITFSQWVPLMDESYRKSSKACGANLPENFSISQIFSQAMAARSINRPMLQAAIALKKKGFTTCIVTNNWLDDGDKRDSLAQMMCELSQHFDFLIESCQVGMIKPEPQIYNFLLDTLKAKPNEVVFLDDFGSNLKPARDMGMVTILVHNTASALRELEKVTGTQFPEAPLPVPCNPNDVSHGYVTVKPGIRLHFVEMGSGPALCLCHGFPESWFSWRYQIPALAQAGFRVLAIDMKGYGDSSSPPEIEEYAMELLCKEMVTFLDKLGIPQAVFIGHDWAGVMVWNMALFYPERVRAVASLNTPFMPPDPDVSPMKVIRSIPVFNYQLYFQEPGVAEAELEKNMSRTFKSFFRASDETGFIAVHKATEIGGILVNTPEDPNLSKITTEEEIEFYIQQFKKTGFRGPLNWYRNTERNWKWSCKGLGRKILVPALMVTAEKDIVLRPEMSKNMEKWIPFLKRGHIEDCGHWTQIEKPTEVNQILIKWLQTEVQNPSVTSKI
Description: Inhibition of C57BL/6J mouse brain sEH using 14,15-EET as substrate preincubated for 15 mins followed by substrate addition by HPLC-MS analysis

[17] = system: Mus musculus; assay: Anti-inflammatory activity in BALB/c mouse model of carrageenan-induced paw edema assessed as inhibition of paw swelling at 20 mg/kg, po measured for 4 hrs relative to control; type: functional
[18] = system: Mus musculus; assay: Anti-inflammatory activity in BALB/c mouse model of carrageenan-induced paw edema assessed as inhibition of paw swelling at 20 mg/kg, po measured for 0.5 hrs relative to control; type: functional; details: Mus musculus, BALB/c

In the case of `CC[C@H](C)C(=O)N1CCC(NC(=O)Nc2ccc(OC(F)(F)F)c(F)c2)CC1`, the Activity [1] is reported as “Active”, the Activity [2] is reported as “No effect” and the Activity [3] is reported as “Active”. The Activity [4] was “Active”, the Activity [5] was “Active” and the Activity [6] was “Active”. The Activity [7] was “Active”, the Activity [8] was “Active” and the Activity [9] was “Active”. For the same molecule, the Activity [10] was “Active”, the Activity [11] was “Active” and the Activity [12] was “Active”. The Activity [13] was “No effect”, the Activity [14] was “Active” and the Imax [15] was 30.6%.
Work on `COc1cc(OC)c2c(c1)C1Cc3ccc(NC(=O)NCc4ccc(OC(F)(F)F)cc4)cc3CN1CC2` (stereo not drawn) yielded an IC50 [16] of 1.44 nM, an inhibition in vivo at 20 mg/kg [17] of 38.5% and an inhibition in vivo at 20 mg/kg [18] of 24.7%.
